Laboratory results from patent publication US20230265151A1, “GIP/GLP1 CO-AGONIST COMPOUNDS” (priority 2020, published 2023).
Like-named read-outs stand apart in the source and are kept apart here. *1 amine or outer side, *2 acyl side, *3 side chain or, on linkers, in order; H or OH if unused. Where a SMILES comes first, the peptide text is derived from it. Side-chain parts run from the residue outwards. [ ]: non-standard residue; d: D form. The star is where a group is joined. Decanoyl(10-(4-HOOC-PhO)) = O=C(O)c1ccc(OCCCCCCCCCC(=O)*)cc1; αMePhe(2-F) = C[C@](N)(Cc1ccccc1F)C(=O)O; γGlu = O=C(O)[C@H](CCC(=O)[*:2])N[*:1]; αMeY = C[C@](N)(Cc1ccc(O)cc1)C(=O)O; αMeL = CC(C)C[C@](C)(N)C(=O)O; Orn = NCCC[C@H](N)C(=O)O; AEEA = NCCOCCOCC(=O)O; Aib = CC(C)(N)C(=O)O

Experiments:
Assay type in all cases: cell-based
hGLP-1R = hGLP-1R (Homo sapiens, UniProt P43220); experiment: Functional cAMP formation (HTRF) in HEK-293 clonal cells expressing hGLP-1R, 0.1% bovine casein, without or with 1.0% human serum albumin; parameters: expressed in transfected cells; conditions: for Emax: percent of maximal response to GLP-1(7-36)NH2; for EC50: cAMP
Sequence of hGLP-1R (P43220 24-463): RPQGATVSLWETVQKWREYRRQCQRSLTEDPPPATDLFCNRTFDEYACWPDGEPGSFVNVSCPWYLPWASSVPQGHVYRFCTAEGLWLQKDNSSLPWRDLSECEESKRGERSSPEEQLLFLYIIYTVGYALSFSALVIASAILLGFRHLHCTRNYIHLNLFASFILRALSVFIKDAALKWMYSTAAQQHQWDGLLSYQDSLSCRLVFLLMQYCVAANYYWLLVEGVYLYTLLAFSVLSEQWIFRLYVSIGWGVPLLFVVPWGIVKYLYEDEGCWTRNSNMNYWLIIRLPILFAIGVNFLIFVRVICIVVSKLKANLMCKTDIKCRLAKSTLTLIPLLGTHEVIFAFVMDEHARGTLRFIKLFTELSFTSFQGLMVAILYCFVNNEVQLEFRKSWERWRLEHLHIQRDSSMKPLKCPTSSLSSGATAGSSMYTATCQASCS
In short: (§1)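 Cells were stimulated with peptide for 30 min at 37° C, then intracellular cAMP was measured by competitive HTRF (665/620 nm ratio) and converted to nM using a cAMP standard curve. Relative EC50 and Emax came from four-parameter logistic fits of percent maximal response against peptide concentration.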

hGCGR = biological target: T1, hGCGR (Homo sapiens, UniProt P47871); experiment: Functional cAMP formation (HTRF) in HEK-293 clonal cells expressing hGCGR, 0.1% bovine casein, without or with 1.0% human serum albumin
T1 construct: expressed in transfected cells
T1 sequence (P47871 26-477): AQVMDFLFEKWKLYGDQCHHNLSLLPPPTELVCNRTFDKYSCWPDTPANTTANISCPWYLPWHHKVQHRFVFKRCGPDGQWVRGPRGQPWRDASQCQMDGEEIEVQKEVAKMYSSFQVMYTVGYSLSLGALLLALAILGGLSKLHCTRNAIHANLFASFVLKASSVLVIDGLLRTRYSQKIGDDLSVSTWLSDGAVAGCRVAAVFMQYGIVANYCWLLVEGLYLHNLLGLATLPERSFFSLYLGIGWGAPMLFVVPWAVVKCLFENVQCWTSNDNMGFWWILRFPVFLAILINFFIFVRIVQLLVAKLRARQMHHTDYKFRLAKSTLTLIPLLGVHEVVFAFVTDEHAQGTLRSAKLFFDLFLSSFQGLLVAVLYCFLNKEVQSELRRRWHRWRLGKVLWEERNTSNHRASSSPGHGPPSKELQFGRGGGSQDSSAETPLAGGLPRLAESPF
In short: as §1

hGIPR = biological target: T2, hGIPR (Homo sapiens, UniProt P48546); experiment: Functional cAMP formation (HTRF) in HEK-293 clonal cells expressing hGIPR, 0.1% bovine casein, without or with 1.0% human serum albumin; conditions: for Emax: percent of maximal response to GIP(1-42)NH2; for EC50: cAMP
T2 construct: expressed in transfected cells
T2 sequence (P48546 22-466): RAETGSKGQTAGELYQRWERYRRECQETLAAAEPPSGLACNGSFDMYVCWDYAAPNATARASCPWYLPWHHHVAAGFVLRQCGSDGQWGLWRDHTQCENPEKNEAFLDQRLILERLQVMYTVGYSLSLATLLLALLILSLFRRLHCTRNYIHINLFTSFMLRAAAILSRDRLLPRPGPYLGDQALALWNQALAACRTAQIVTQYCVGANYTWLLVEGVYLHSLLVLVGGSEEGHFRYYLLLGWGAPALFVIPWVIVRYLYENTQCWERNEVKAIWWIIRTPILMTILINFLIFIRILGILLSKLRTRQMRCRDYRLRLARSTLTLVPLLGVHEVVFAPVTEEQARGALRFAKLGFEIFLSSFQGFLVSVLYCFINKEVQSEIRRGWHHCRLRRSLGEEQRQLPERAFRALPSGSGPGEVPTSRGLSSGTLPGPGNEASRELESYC
In short: as §1

[1] = HEK293, read-out: hGLP-1R Emax, % ± SEM, cAMP, 37° C., 0.1% bovine casein and 1.0% human serum albumin
[2] = hGLP-1R EC50, nM (SEM, n), 37° C., 0.1% bovine casein (no human serum albumin), geometric mean
[3] = hGLP-1R EC50, nM (SEM, n), 37° C., 0.1% bovine casein and 1.0% human serum albumin, geometric mean (SEM, n)
[4] = hGCGR EC50, nM (SEM, n), cAMP, 37° C., 0.1% bovine casein (no human serum albumin), geometric mean
[5] = hGCGR EC50, nM (SEM, n), cAMP, 37° C., 0.1% bovine casein and 1.0% human serum albumin, geometric mean (SEM, n)
[6] = HEK293, read-out: hGIPR Emax, % ± SEM, cAMP, 37° C., 0.1% bovine casein and 1.0% human serum albumin
[7] = HEK293, read-out: hGIPR Emax, % ± SEM, cAMP, 37° C., 0.1% bovine casein, arithmetic mean
[8] = hGIPR EC50, nM (SEM, n), 37° C., 0.1% bovine casein (no human serum albumin), geometric mean

| Compound | Emax (hGLP-1R; [1]) [%] | EC50 (hGLP-1R; [2]) [nM] | EC50 (hGLP-1R; [3]) [nM] | EC50 (hGCGR; [4]) [nM] | EC50 (hGCGR; [5]) [nM] | Emax (hGIPR; [6]) [%] | Emax (hGIPR; [7]) [%] | EC50 (hGIPR; [8]) [nM] | also measured |
| --- | --- | --- | --- | --- | --- | --- | --- | --- | --- |
| CC[C@H](C)[C@H](NC(=O)[C@H](CC(C)C)NC(=O)[C@](C)(Cc1ccc(O)cc1)NC(=O)[C@@H](CCC(=O)O)NC(=O)[C@@H](NC(=O)[C@H](Cc1ccccc1)NC(=O)[C@H](CCCCNC(=O)COCCOCCNC(=O)COCCOCCNC(=O)CCCCCCCCCOc1ccc(C(=O)O)cc1)NC(=O)C(C)(C)NC(=O)[C@H](CCC(N)=O)NC(=O)[C@H](C)NC(=O)[C@H](CCCCNC(=O)COCCOCCNC(=O)COCCOCCNC(=O)CCCCCCCCCOc1ccc(C(=O)O)cc1)NC(=O)[C@H](CCCN)NC(=O)[C@H](CC(=O)O)NC(=O)[C@H](CC(C)C)NC(=O)[C@](C)(CC(C)C)NC(=O)[C@@H](NC(=O)C(C)(C)NC(=O)[C@@H](NC(=O)[C@H](CC(=O)O)NC(=O)[C@H](CO)NC(=O)[C@@H](NC(=O)[C@](C)(Cc1ccccc1F)NC(=O)[C@@H](NC(=O)CNC(=O)[C@H](CCC(=O)O)NC(=O)C(C)(C)NC(=O)[C@@H](N)Cc1ccc(O)cc1)[C@@H](C)O)[C@@H](C)O)C(C)C)[C@@H](C)CC)[C@@H](C)CC)C(=O)N[C@@H](CCC(=O)O)C(=O)NCC(=O)NCC(=O)N1CCC[C@H]1C(=O)N[C@@H](CO)C(=O)N[C@@H](CO)C(=O)NCC(=O)N[C@@H](C)C(=O)N1CCC[C@H]1C(=O)N1CCC[C@H]1C(=O)N1CCC[C@H]1C(=O)N[C@@H](CO)C(N)=O [Example 394] | 96.8 | 0.223 | 5.83 | > 9950 | > 9950 | 84.6 | 97.7 | 0.0179 | EC50 (hGIPR; hGIPR EC50, nM (SEM, n), 37° C., 0.1% bovine casein and 1.0% human serum albumin, geometric mean (SEM, n)): 1.38 nM |
| CC[C@H](C)[C@H](NC(=O)[C@H](CC(C)C)NC(=O)[C@](C)(Cc1ccc(O)cc1)NC(=O)[C@H](CCCCNC(=O)COCCOCCNC(=O)COCCOCCNC(=O)CC[C@H](NC(=O)CCCCCCCCCCCCCCC(=O)O)C(=O)O)NC(=O)[C@@H](NC(=O)[C@H](Cc1ccccc1)NC(=O)[C@H](CCCN)NC(=O)C(C)(C)NC(=O)[C@H](CCC(N)=O)NC(=O)[C@H](C)NC(=O)[C@H](CCC(N)=O)NC(=O)[C@H](CCCN)NC(=O)[C@H](CC(=O)O)NC(=O)[C@H](CC(C)C)NC(=O)[C@](C)(CC(C)C)NC(=O)[C@@H](NC(=O)C(C)(C)NC(=O)[C@H](Cc1ccncc1)NC(=O)[C@H](CC(=O)O)NC(=O)[C@H](CO)NC(=O)[C@@H](NC(=O)[C@](C)(Cc1ccccc1F)NC(=O)[C@@H](NC(=O)CNC(=O)[C@H](CCC(=O)O)NC(=O)C(C)(C)NC(=O)[C@@H](N)Cc1ccc(O)cc1)[C@@H](C)O)[C@@H](C)O)[C@@H](C)CC)[C@@H](C)CC)C(=O)N[C@@H](CCCCNC(=O)COCCOCCNC(=O)COCCOCCNC(=O)CC[C@H](NC(=O)CCCCCCCCCCCCCCC(=O)O)C(=O)O)C(=O)NCC(=O)NCC(=O)N1CCC[C@H]1C(=O)N[C@@H](CO)C(=O)N[C@@H](CO)C(=O)NCC(=O)N[C@@H](C)C(=O)N1CCC[C@H]1C(=O)N1CCC[C@H]1C(=O)N1CCC[C@H]1C(=O)N[C@@H](CO)C(N)=O [Example 443] |  |  |  |  |  |  |  |  | Emax (hGLP-1R; HEK293, cAMP, 37° C., 0.1% bovine casein, arithmetic mean, read-out: hGLP-1R Emax, % ± SEM): 114%; EC50 (hGLP-1R; 37° C., 0.1% bovine casein (no human serum albumin), geometric mean, read-out: hGLP-1R EC50, nM (SEM, n)): 0.294 nM; EC50 (hGCGR; cAMP, 37° C., 0.1% bovine casein (no human serum albumin), geometric mean, read-out: hGCGR EC50, nM (SEM, n)): > 9950 nM; EC50 (hGCGR; cAMP, 37° C., 0.1% bovine casein and 1.0% human serum albumin, geometric mean (SEM, n), read-out: hGCGR EC50, nM (SEM, n)): > 9950 nM; Emax (hGIPR; HEK293, cAMP, 37° C., 0.1% bovine casein and 1.0% human serum albumin, read-out: hGIPR Emax, % ± SEM): 91.1%; EC50 (hGIPR; 37° C., 0.1% bovine casein (no human serum albumin), geometric mean, read-out: hGIPR EC50, nM (SEM, n)): 0.0178 nM |
| CC[C@H](C)[C@H](NC(=O)[C@H](CCCN)NC(=O)[C@H](CC(=O)O)NC(=O)[C@H](CC(C)C)NC(=O)[C@](C)(CC(C)C)NC(=O)[C@@H](NC(=O)C(C)(C)NC(=O)[C@H](Cc1ccc(O)cc1)NC(=O)[C@H](CC(=O)O)NC(=O)[C@H](CO)NC(=O)[C@@H](NC(=O)[C@](C)(Cc1ccccc1F)NC(=O)[C@@H](NC(=O)CNC(=O)[C@H](CCC(=O)O)NC(=O)C(C)(C)NC(=O)[C@@H](N)Cc1ccc(O)cc1)[C@@H](C)O)[C@@H](C)O)[C@@H](C)CC)C(=O)N[C@@H](C)C(=O)N[C@@H](CCC(N)=O)C(=O)NC(C)(C)C(=O)N[C@@H](CCC(=O)O)C(=O)N[C@@H](Cc1ccccc1)C(=O)N[C@H](C(=O)N[C@@H](CCCCNC(=O)COCCOCCNC(=O)COCCOCCNC(=O)CC[C@H](NC(=O)CCCCCCCCCOc1ccc(C(=O)O)cc1)C(=O)O)C(=O)N[C@@](C)(Cc1ccc(O)cc1)C(=O)N[C@@H](CC(C)C)C(=O)N[C@H](C(=O)N[C@@H](CCCCNC(=O)COCCOCCNC(=O)COCCOCCNC(=O)CC[C@H](NC(=O)CCCCCCCCCOc1ccc(C(=O)O)cc1)C(=O)O)C(=O)NCC(=O)NCC(=O)N1CCC[C@H]1C(=O)N[C@@H](CO)C(=O)N[C@@H](CO)C(=O)NCC(=O)N[C@@H](C)C(=O)N1CCC[C@H]1C(=O)N1CCC[C@H]1C(=O)N1CCC[C@H]1C(=O)N[C@@H](CO)C(N)=O)[C@@H](C)CC)[C@@H](C)CC [Example 239] |  |  |  |  |  |  |  |  | Emax (hGLP-1R; HEK293, read-out: hGLP-1R Emax, % ± SEM, 0.1% bovine casein and 1.0% human serum albumin, 37° C.): 109%; EC50 (hGLP-1R; hGLP-1R EC50, nM (SEM, n), incubated at 37° C., 0.1% bovine casein (no human serum albumin), geometric mean): 0.546 nM; EC50 (hGCGR; hGCGR EC50, nM (SEM, n), 0.1% bovine casein and 1.0% human serum albumin, 37° C., geometric mean): > 9950 nM; EC50 (hGCGR; hGCGR EC50, nM (SEM, n), cAMP, incubated at 37° C., 0.1% bovine casein (no human serum albumin), geometric mean): > 9950 nM; Emax (hGIPR; HEK293, read-out: hGIPR Emax, % ± SEM, 0.1% bovine casein and 1.0% human serum albumin, 37° C.): 89.1%; EC50 (hGIPR; hGIPR EC50, nM (SEM, n), incubated at 37° C., 0.1% bovine casein (no human serum albumin), geometric mean): 0.0328 nM |
| CC[C@H](C)[C@H](NC(=O)[C@H](CC(C)C)NC(=O)[C@](C)(Cc1ccc(O)cc1)NC(=O)[C@@H](CCC(=O)O)NC(=O)[C@@H](NC(=O)[C@H](Cc1ccccc1)NC(=O)[C@H](CCC(=O)O)NC(=O)C(C)(C)NC(=O)[C@H](CCC(N)=O)NC(=O)[C@H](C)NC(=O)[C@H](CCCCNC(=O)COCCOCCNC(=O)COCCOCCNC(=O)CC[C@H](NC(=O)CCCCCCCCCOc1ccc(C(=O)O)cc1)C(=O)O)NC(=O)[C@H](CCCN)NC(=O)[C@H](CC(=O)O)NC(=O)[C@H](CC(C)C)NC(=O)[C@](C)(CC(C)C)NC(=O)[C@@H](NC(=O)C(C)(C)NC(=O)[C@@H](NC(=O)[C@H](CC(=O)O)NC(=O)[C@H](CO)NC(=O)[C@@H](NC(=O)[C@](C)(Cc1ccccc1F)NC(=O)[C@@H](NC(=O)CNC(=O)[C@H](CCC(=O)O)NC(=O)C(C)(C)NC(=O)[C@@H](N)Cc1ccc(O)cc1)[C@@H](C)O)[C@@H](C)O)C(C)C)[C@@H](C)CC)[C@@H](C)CC)C(=O)N[C@@H](CCC(=O)O)C(=O)NCC(=O)NCC(=O)N1CCC[C@H]1C(=O)N[C@@H](CO)C(=O)N[C@@H](CO)C(=O)NCC(=O)N[C@@H](C)C(=O)N1CCC[C@H]1C(=O)N1CCC[C@H]1C(=O)N1CCC[C@H]1C(=O)N[C@@H](CO)C(=O)N[C@@H](CCCCNC(=O)COCCOCCNC(=O)COCCOCCNC(=O)CC[C@H](NC(=O)CCCCCCCCCOc1ccc(C(=O)O)cc1)C(=O)O)C(N)=O [Example 380] (H-Y[Aib]EGT[αMePhe(2-F)]TSDV[Aib]I[αMeL]LD[Orn]K([AEEA-AEEA-γGlu-Decanoyl(10-(4-HOOC-PhO))])AQ[Aib]EFI[dE][αMeY]LIEGGPSSGAPPPSK([AEEA-AEEA-γGlu-Decanoyl(10-(4-HOOC-PhO))])-NH2) | 94.5 | 0.176 | 28 | > 9950 | > 9950 | 93.5 | 100 | 0.0209 | Emax (hGLP-1R; HEK293, read-out: hGLP-1R Emax, % ± SEM, cAMP, 37° C., 0.1% bovine casein, arithmetic mean): 96.2% |
